Experimental findings from US10821115B2, “Compounds that inhibit Mcl-1 protein” (priority 2017, dated 2020) are described below.

Assay [1] addresses recombinant human Mcl-1 (residues 171-327) / Bim interaction (Homo sapiens (Human), UniProt Q07820). Kind of assay: biochemical. The assay is classed as binding. The following applies: read-out: Mcl-1 HTRF IC50.
Assay [2] concerns human multiple myeloma cell line, OPM-2. Kind of assay: Cell viability assay (OPM-2 10 FBS), CellTiter-Glo. The class given is cell-based. Put shortly: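 OPM-2 cells at 3000 cells/well in RPMI 1640 with 10% FBS were exposed to serially diluted compounds for 16 h at 37 °C, 5% CO2.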
[3] abbreviates: TR-FRET, Mcl-1(171-327) / biotin-Bim (51-76).
[4] abbreviates: Homo sapiens, OPM-2, 16 h, read-out: OPM-2 10% FBS IC50 IP, OPM-2 cells, 10% FBS, 16 h, CellTiter-Glo.
Setting [5] is: read-out: OPM-2 10% FBS IC50 IP, OPM-2 cells, 10% FBS, 16 h, CellTiter-Glo.
Where [6] appears, read: 0.1 nM Mcl-1(171-327), 0.05 nM biotin-Bim (51-76).
[7] abbreviates: Homo sapiens, OPM-2, 16 h, read-out: OPM-2 10% FBS IC50 IP, OPM-2 cells, 10% FBS, 16 h incubation.

pIC50: −log10 of the molar value. Read-outs that look alike come from different tables or passages of the source.

Chain of recombinant human Mcl-1 (residues 171-327) / Bim interaction (Q07820 171-327): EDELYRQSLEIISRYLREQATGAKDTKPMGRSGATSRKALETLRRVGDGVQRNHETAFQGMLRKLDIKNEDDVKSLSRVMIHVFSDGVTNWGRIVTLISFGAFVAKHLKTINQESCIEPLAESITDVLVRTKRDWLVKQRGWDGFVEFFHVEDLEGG

Turning to `C[C@@H]1[C@@H](C)C/C=C/[C@@](O)(c2cnccn2)[C@@H]2CC[C@H]2CN2C[C@@]3(CCCc4cc(Cl)ccc43)COc3ccc(cc32)C(=O)NS1(=O)=O` [Example 100357, (1S,3′R,6′R,7′S,8′E,11′S,12′R)-6-chloro-7′-hydroxy-11′,12′-dimethyl-7′-(2-pyrazinyl)-3,4-dihydro-2H,15′H-spiro[naphthalene-1,22′-[20]oxa[13]thia[1,14]diazatetracyclo [14.7.2.0~3,6~.0~19,24~]pentacosa[8,16,18,24]tetraen]-15′-one 13′,13′-dioxide], the results for the pIC50 in assay [1] (setting [3]) and in assay [2] (setting [4]) were 9.65 and 6.40, respectively.
`CO[C@]1(CC2=NC(C)(C)CO2)/C=C/C[C@H](C)[C@@H](C)S(=O)(=O)NC(=O)c2ccc3c(c2)N(C[C@@H]2CC[C@H]21)C[C@@]1(CCCc2cc(Cl)ccc21)CO3` [Example 100380, (1S,3′R,6′R,7′R,8′E,11′S,12′R)-6-chloro-7′-((4,4-dimethyl-4,5-dihydro-1,3-oxazol-2-yl)methyl)-7′-methoxy-11′,12′-dimethyl-3,4-dihydro-2H,15′H-spiro[naphthalene-1,22′-[20]oxa[13]thia[1,14]diazatetracyclo [14.7.2.0~3,6~.0~19,24~]pentacosa[8,16,18,24]tetraen]-15′-one 13′,13′-dioxide]: the values for the pIC50 in assay [1] (setting [3]) and in assay [2] (setting [4]) were 9.68 and 6.86, respectively.
Regarding `C[C@@H]1[C@@H](C)CCCC(CO)(CO)[C@@H]2CC[C@H]2CN2C[C@@]3(CCCc4cc(Cl)ccc43)COc3ccc(cc32)C(=O)NS1(=O)=O` [Example 100342, (1S,3′R,6′R,11′S,12′R)-6-chloro-7′,7′-bis(hydroxymethyl)-11′,12′-dimethyl-3,4-dihydro-2H,15′H-spiro[naphthalene-1,22′-[20]oxa[13]thia[1,14]diazatetracyclo [14.7.2.0~3,6~.0~19,24~]pentacosa[16,18,24]trien]-15′-one 13′,13′-dioxide], the pIC50 was 8.77 in assay [1] (setting [3]) and 6.11 in assay [2] (setting [4]).
As to `C[C@@H]1[C@@H](C)CCC[C@@](O)(C#CCN2CCOCC2)[C@@H]2CC[C@H]2CN2C[C@@]3(CCCc4cc(Cl)ccc43)COc3ccc(cc32)C(=O)NS1(=O)=O` [Example 100354, (1S,3′R,6′R,7′S,11′S,12′R)-6-chloro-7′-hydroxy-11′,12′-dimethyl-7′-(3-(4-morpholinyl)-1-propyn-1-yl)-3,4-dihydro-2H,15′H-spiro[naphthalene-1,22′-[20]oxa[13]thia[1,14]diazatetracyclo [14.7.2.0~3,6~.0~19,24~]pentacosa[16,18,24]trien]-15′-one 13′,13′-dioxide], the pIC50 in assay [1] (setting [3]) was 9.96; in assay [2] (setting [4]), 6.83.
Regarding `C[C@@H]1[C@@H](C)C/C=C/[C@@](O)(C#CCN2CCS(=O)(=O)CC2)[C@@H]2CC[C@H]2CN2C[C@@]3(CCCc4cc(Cl)ccc43)COc3ccc(cc32)C(=O)NS1(=O)=O` [Example 100389, (1S,3′R,6′R,7′S,8′E,11′S,12′R)-6-chloro-7′-(3-(1,1-dioxido-4-thiomorpholinyl)-1-propyn-1-yl)-7′-hydroxy-11′,12′-dimethyl-3,4-dihydro-2H,15′H-spiro[naphthalene-1,22′-[20]oxa[13]thia[1,14]diazatetracyclo [14.7.2.0~3,6~.0~19,24~]pentacosa[8,16,18,24]tetraen]-15′-one 13′,13′-dioxide], the values for the negative-log IC50 (pIC50) in assay [1] (setting [3]) and in assay [2] (setting [5]) were 10.00 and 6.94, respectively.
As to `C[C@@H]1[C@@H](C)C/C=C/[C@@](O)(CN2CCN3CCCC[C@@H]3C2)[C@@H]2CC[C@H]2CN2C[C@@]3(CCCc4cc(Cl)ccc43)COc3ccc(cc32)C(=O)NS1(=O)=O` (racemic) [Example 236], the pIC50 is 10.01 in assay [1] (setting [6]) and 7.06 in assay [2] (setting [7]).
`CO[C@@]1(CN2CCC(N(C)C)CC2)/C=C/C[C@H](C)[C@@H](C)S(=O)(=O)NC(=O)c2ccc3c(c2)N(C[C@@H]2CC[C@H]21)C[C@@]1(CCCc2cc(Cl)ccc21)CO3` [Example 118, (1S,3′R,6′R,7′S,8′E,11′S,12′R)-6-chloro-7′-((4-(dimethylamino)-1-piperidinyl)methyl)-7′-methoxy-11′,12′-dimethyl-3,4-dihydro-2H,15′H-spiro[naphthalene-1,22′-[20]oxa[13]thia[1,14]diazatetracyclo [14.7.2.0~3,6~.0~19,24~]pentacosa[8,16,18,24]tetraen]-15′-one 13′,13′-dioxide]: the pIC50 was 9.67 in assay [1] (setting [6]) and 6.25 in assay [2] (setting [7]).
As to `COC(OC)c1cncc([C@@]2(OC)/C=C/C[C@H](C)[C@@H](C)S(=O)(=O)NC(=O)c3ccc4c(c3)N(C[C@@H]3CC[C@H]32)C[C@@]2(CCCc3cc(Cl)ccc32)CO4)c1` (single isomer, unassigned) [Example 100511], the negative-log IC50 (pIC50) in assay [1] (setting [3]) is 10.15; in assay [2] (setting [4]), 6.37.
With `C[C@@H]1[C@@H](C)CCC[C@@](O)(c2cccnc2)[C@@H]2CC[C@H]2CN2C[C@@]3(CCCc4cc(Cl)ccc43)COc3ccc(cc32)C(=O)NS1(=O)=O` [Example 100185, (1S,3′R,6′R,7′S,11′S,12′R)-6-chloro-7′-hydroxy-11′,12′-dimethyl-7′-(3-pyridinyl)-3,4-dihydro-2H,15′H-spiro[naphthalene-1,22′-[20]oxa[13]thia[1,14]diazatetracyclo [14.7.2.0~3,6~.0~19,24~]pentacosa[16,18,24]trien]-15′-one 13′,13′-dioxide], the pIC50 is 8.05 in assay [1] and 5.29 in assay [2] (setting [4]).
For `Cc1ccc([C@]2(O)/C=C/C[C@H](C)[C@@H](C)S(=O)(=O)NC(=O)c3ccc4c(c3)N(C[C@@H]3CC[C@H]32)C[C@@]2(CCCc3cc(Cl)ccc32)CO4)cn1` (single isomer, unassigned) [Example 100408], the pIC50 was 8.87 in assay [1] (setting [3]) and 5.25 in assay [2] (setting [4]).
As for `COc1ncccc1[C@@]1(O)/C=C/C[C@H](C)[C@@H](C)S(=O)(=O)NC(=O)c2ccc3c(c2)N(C[C@@H]2CC[C@H]21)C[C@@]1(CCCc2cc(Cl)ccc21)CO3` (single isomer, unassigned) [Example 100334], the pIC50 was 8.49 in assay [1] (setting [3]) and 5.83 in assay [2] (setting [5]).
In the case of `CO[C@@]1(CN2CCN3CCS(=O)(=O)C[C@@H]3C2)/C=C/C[C@H](C)[C@@H](C)S(=O)(=O)NC(=O)c2ccc3c(c2)N(C[C@@H]2CC[C@H]21)C[C@@]1(CCCc2cc(Cl)ccc21)CO3` (single isomer, unassigned) [Example 232], the pIC50 is 9.85 in assay [1] (setting [6]) and 6.70 in assay [2] (read-out: OPM-2 10% FBS IC50 IP, OPM-2 cells, 10% FBS, 16 h incubation).
Turning to `C[C@@H]1[C@@H](C)C/C=C/[C@@]2(COCCO2)[C@@H]2CC[C@H]2CN2C[C@@]3(CCCc4cc(Cl)ccc43)COc3ccc(cc32)C(=O)NS1(=O)=O` [Example 100264, (2S,3′R,6′R,8′E,11′S,12′R,22′S)-6″-chloro-11′,12′-dimethyl-3″,4″-dihydro-2″H,15′H-dispiro[1,4-dioxane-2,7′-[20]oxa[13]thia[1,14]diazatetracyclo [14.7.2.0~3,6~.0~19,24~]pentacosa[8,16,18,24]tetraene-22′,1″-naphthalen]-15′-one 13′,13′-dioxide], the pIC50 in assay [1] (setting [3]) was 9.42; in assay [2] (setting [5]) it was 6.22.
